Patent US7659270B2, “Hepatitis C virus inhibitors” (Bristol-Myers Squibb Company, priority 2006, dated 2010)

What follows are compounds tested on HCV 1b-377-neo replicon cells (assay: HCV replicon assay (HCV 1b-377-neo replicon cells)). Conditions: Hepatitis C virus, read-out: EC50 range against HCV 1b (Range).
Assay type: cell-based, Hepatitis C virus genotype 1b
Method: An HCV Replion assay was utilized in the present disclosure, and was prepared, conducted and validated as described in commonly owned PCT/US2006/022197 and in O'Boyle et. al. Antimicrob Agents Chemother. April 2005;49(4): 1346-53.
HCV 1b-377-neo replicon cells were used to test the currently described compound series as well as cells resistant to compound A due to a Y2065H mutation in NS5A (described in application PCT/US2006/022197). The compounds tested were determined to have more than 10-fold less inhibitory activity on cells resistant to compound A than wild-type cells indicating a related mechanism of action between the two compound series. Thus, the compounds of the present disclosure can be effective to inhibit the function of the HCV NS5A protein and are understood to be as effective in combinations as previously described in application PCT/US2006/022197 and commonly owned WO/04014852. Further, the compounds of the present disclosure can be effective against the HCV 1b genotype. It should also be understood that the compounds of the present disclosure can inhibit multiple genotypes of HCV. […] In one embodiment compounds of the present disclosure are active against the 1a, 1b, 2a, 2b, 3a, 4a, and 5a genotypes.

| SMILES | EC50 [nM] |
| --- | --- |
| CO[C@@H](C(=O)N1CCC[C@H]1c1ncc(-c2ccc(-c3ccc(-c4cnc([C@@H]5CCCN5C(=O)[C@H](OC)c5ccccc5)[nH]4)cn3)cc2)[nH]1)c1ccccc1 [Example 135, 5-(2-((2S)-1-((2R)-2-methoxy-2-phenylacetyl)-2-pyrrolidinyl)-1H-imidazol-5-yl)-2-(4-(2-((2S)-1-((2R)-2-methoxy-2-phenylacetyl)-2-pyrrolidinyl)-1H-imidazol-5-yl)phenyl)pyridine] | 0.01 to 0.999 |
| Cc1cc(-c2cnc([C@@H]3CCCN3C(=O)[C@@H](c3ccccc3)N(C)C)[nH]2)ccc1-c1ccc(-c2cnc([C@@H]3CCCN3C(=O)[C@@H](c3ccccc3)N(C)C)[nH]2)cn1 [Example 136, (1R)-2-((2S)-2-(5-(6-(4-(2-((2S)-1-((2R)-2-(dimethylamino)-2-phenylacetyl)-2-pyrrolidinyl)-1H-imidazol-5-yl)-2-methylphenyl)-3-pyridinyl)-1H-imidazol-2-yl)-1-pyrrolidinyl)-N,N-dimethyl-2-oxo-1-phenylethanamine] | 0.01 to 0.999 |
| COC(=O)N[C@@H](C(=O)N1CCC[C@H]1c1ncc(-c2ccc(-c3ccc(-c4cnc([C@@H]5CCCN5C(=O)[C@H](NC(=O)OC)c5ccccc5)[nH]4)cc3C)nc2)[nH]1)c1ccccc1 [Example 138, methyl((1R)-2-((2S)-2-(5-(6-(4-(2-((2S)-1-((2R)-2-((methoxycarbonyl)amino)-2-phenylacetyl)-2-pyrrolidinyl)-1H-imidazol-5-yl)-2-methylphenyl)-3-pyridinyl)-1H-imidazol-2-yl)-1-pyrrolidinyl)-2-oxo-1-phenylethyl)carbamate] | 0.01 to 0.999 |
| CC(=O)N[C@@H](C(=O)N1CCC[C@H]1c1ncc(-c2ccc(-c3ccc(-c4cnc([C@@H]5CCCN5C(=O)[C@H](NC(C)=O)c5ccccc5)[nH]4)cn3)cc2)[nH]1)c1ccccc1 [Example 139, N-((1R)-2-((2S)-2-(5-(6-(4-(2-((2S)-1-((2R)-2-acetamido-2-phenylacetyl)-2-pyrrolidinyl)-1H-imidazol-5-yl)phenyl)-3-pyridinyl)-1H-imidazol-2-yl)-1-pyrrolidinyl)-2-oxo-1-phenylethyl)acetamide] | 0.01 to 0.999 |
| COC(=O)N[C@@H](C(=O)N1CCC[C@H]1c1ncc(-c2ccc(-c3ccc(-c4cnc([C@@H]5CCCN5C(=O)[C@@H](c5ccccc5)N(C)C)[nH]4)cn3)cc2)[nH]1)c1ccccc1 [Example 140, methyl((1R)-2-((2S)-2-(5-(4-(5-(2-((2S)-1-((2R)-2-(dimethylamino)-2-phenylacetyl)-2-pyrrolidinyl)-1H-imidazol-5-yl)-2-pyridinyl)phenyl)-1H-imidazol-2-yl)-1-pyrrolidinyl)-2-oxo-1-phenylethyl)carbamate] | 0.01 to 0.999 |
| COC(=O)N[C@@H](C(=O)N1CCC[C@H]1c1ncc(-c2ccc(-c3ccc(-c4cnc([C@@H]5CCCN5C(=O)[C@H]5CCCO5)[nH]4)cn3)cc2)[nH]1)c1ccccc1 [Example 141, methyl ((1R)-2-oxo-1-phenyl-2-((2S)-2-(5-(4-(5-(2-((2S)-1-((2R)-tetrahydro-2-furanylcarbonyl)-2-pyrrolidinyl)-1H-imidazol-5-yl)-2-pyridinyl)phenyl)-1H-imidazol-2-yl)-1-pyrrolidinyl)ethyl)carbamate] | 0.01 to 0.999 |
| COC(=O)N[C@@H](C(=O)N1CCC[C@H]1c1ncc(-c2ccc(-c3ccc(-c4cnc([C@@H]5CCCN5C(=O)C5CCN(C)CC5)[nH]4)cn3)cc2)[nH]1)c1ccccc1 [Example 142, methyl ((1R)-2-((2S)-2-(5-(4-(5-(2-((2S)-1-((1-methyl-4-piperidinyl)carbonyl)-2-pyrrolidinyl)-1H-imidazol-5-yl)-2-pyridinyl)phenyl)-1H-imidazol-2-yl)-1-pyrrolidinyl)-2-oxo-1-phenylethyl)carbamate] | 1 to 99 |
| COC(=O)N[C@@H](C(=O)N1CCC[C@H]1c1ncc(-c2ccc(-c3ccc(-c4cnc([C@@H]5CCCN5C(=O)Cc5cccnc5)[nH]4)cn3)cc2)[nH]1)c1ccccc1 [Example 143, methyl ((1R)-2-oxo-1-phenyl-2-((2S)-2-(5-(4-(5-(2-((2S)-1-(3-pyridinylacetyl)-2-pyrrolidinyl)-1H-imidazol-5-yl)-2-pyridinyl)phenyl)-1H-imidazol-2-yl)-1-pyrrolidinyl)ethyl)carbamate] | 0.01 to 0.999 |
| COC(=O)N[C@@H](C(=O)N1CCC[C@H]1c1ncc(-c2ccc(-c3ccc(-c4cnc([C@@H]5CCCN5C(=O)N5CCOCC5)[nH]4)cn3)cc2)[nH]1)c1ccccc1 [Example 144, methyl((1R)-2-((2S)-2-(5-(4-(5-(2-((2S)-1-(4-morpholinylcarbonyl)-2-pyrrolidinyl)-1H-imidazol-5-yl)-2-pyridinyl)phenyl)-1H-imidazol-2-yl)-1-pyrrolidinyl)-2-oxo-1-phenylethyl)carbamate] | 0.01 to 0.999 |
| COC(=O)N[C@@H](C(=O)N1CCC[C@H]1c1ncc(-c2ccc(-c3ccc(-c4cnc([C@@H]5CCCN5C(=O)[C@H](NC(=O)OC)c5ccccc5)[nH]4)cn3)nc2)[nH]1)c1ccccc1 [Example 145, dimethyl(2,2′-bipyridine-5,5′-diylbis(1H-imidazole-5,2-diyl(2S)-2,1-pyrrolidinediyl((1R)-2-oxo-1-phenyl-2,1-ethanediyl)))biscarbamate] | 0.01 to 0.999 |
| CN(C)[C@@H](C(=O)N1CCC[C@H]1c1ncc(-c2ccc(-c3ccc(-c4cnc([C@@H]5CCCN5C(=O)[C@@H](c5ccccc5)N(C)C)[nH]4)nc3)cc2)[nH]1)c1ccccc1 [Example 146, (1R)-2-((2S)-2-(5-(5-(4-(2-((2S)-1-((2R)-2-(dimethylamino)-2-phenylacetyl)-2-pyrrolidinyl)-1H-imidazol-5-yl)phenyl)-2-pyridinyl)-1H-imidazol-2-yl)-1-pyrrolidinyl)-N,N-dimethyl-2-oxo-1-phenylethanamine] | 0.01 to 0.999 |
| COC(=O)N[C@@H](C(=O)N1CCC[C@H]1c1ncc(-c2ccc(-c3ccc(-c4cnc([C@@H]5CCCN5C(=O)[C@H](NC(=O)OC)c5ccccc5)[nH]4)nc3)cc2)[nH]1)c1ccccc1 [Example 147, methyl((1R)-2-((2S)-2-(5-(5-(4-(2-((2S)-1-((2R)-2-((methoxycarbonyl)amino)-2-phenylacetyl)-2-pyrrolidinyl)-1H-imidazol-5-yl)phenyl)-2-pyridinyl)-1H-imidazol-2-yl)-1-pyrrolidinyl)-2-oxo-1-phenylethyl)carbamate] | 0.01 to 0.999 |
| CN(C)[C@@H](C(=O)N1CSC[C@H]1c1ncc(-c2ccc(-c3ccc(-c4cnc([C@@H]5CSCN5C(=O)[C@@H](c5ccccc5)N(C)C)[nH]4)cc3)cc2)[nH]1)c1ccccc1 [Example 148, (1R,1′R)-2,2′-(4,4′-biphenyldiylbis(1H-imidazole-5,2-diyl(4R)-1,3-thiazolidine-4,3-diyl))bis(N,N-dimethyl-2-oxo-1-phenylethanamine)] | 1 to 99 |
| CN(C)[C@@H](C(=O)N1CCC[C@H]1c1ncc(-c2ccc(-c3ncc(-c4cnc([C@@H]5CCCN5C(=O)[C@@H](c5ccccc5)N(C)C)[nH]4)cn3)cc2)[nH]1)c1ccccc1 [Example 152j-1, (1R)-2-((2S)-2-(5-(2-(4-(2-((2S)-1-((2R)-2-(dimethylamino)-2-phenylacetyl)-2-pyrrolidinyl)-1H-imidazol-5-yl)phenyl)-5-pyrimidinyl)-1H-imidazol-2-yl)-1-pyrrolidinyl)-N,N-dimethyl-2-oxo-1-phenylethanamine] | 1 to 99 |
